Test results reported in paper PMC11487561 (ACS Chemical Neuroscience, 2024).

Experiments:
[1] = Intrinsic clearance in rat liver microsomes; assay type: in vitro ADME
Protocol: Intrinsic Clearance in Rat and Human Liver Microsomes
The in vitro intrinsic clearance (CL int) was investigated in commercially obtained hepatic microsomes from rat and human donors using the substrate depletion (i.e., loss-of-parent vs. time, or t 1/2 method) approach with analyte detection via liquid chromatography-tandem mass spectrometry (LC-MS/MS). For each species, mean %parent remaining values at each time point were calculated from replicates raw data (analyte:IS peak area ratios) and used to determine in vitro t 1/2 and CLint.
Experiments were carried out using a robot-assisted (TECAN model Evo 200). Compound was incubated (1 µM final concentration) in buffer (100 mM potassium phosphate pH 7.4 with 3 mM MgCl2) containing hepatic microsomes (0.5 mg/mL final concentration) from multiple species, discretely, at 37 °C under constant orbital shaking. After 5 minutes (pre-incubation), reactions were initiated by addition of nicotinamide adenine dinucleotide phosphate (NADPH, 1 mM final concentration). At selected time intervals (0, 3, 7, 15, 25, and 45 minutes) post-addition of NADPH, aliquots (50 µL) were taken and placed into a 96-shallow-well plate containing ice cold acetonitrile (150 µL) with carbamazepine (IS, 50 nM). The plates were then centrifuged (3000 rcf at 4 °C) for 10 minutes. The supernatants were transferred to a new 96-shallow-well daughter plate and diluted (1:1 v/v) with water (Milli-Q filtered). The plates were then sealed in preparation for LC-MS/MS analysis (see below).
Raw LC-MS/MS peak area data generated from the assay samples were used to construct natural log-transformed %parent remaining vs. time plots (using t = 0 minute post-NADPH addition sample data as starting point set to 100%). In vitro compound half-life (t 1/2) values were obtained using the following […]
k is the slope from linear regression analysis of the natural log-transformed data (using means from Where all replicates at each time point). Resulting t 1/2 values were then used to calculate hepatic CLint values according to the following equation and with the use of species-specific scale-up factors for liver weight (grams) per total body weight (kg): […]
CLint = in vitro t1/2 x 0.5 mg microsomes x 1 gram liver x kg body wt aScale-up factors used are 45 (rat) and 20 (human).2
Predicted hepatic clearance (CLhep) was calculated using the following equation: […]
Qh represents hepatic blood flow (mL/min/kg): 21 for human, 70 for rat, and 90 for mouse.
Prepared samples were injected (10 µL each) onto an AB Sciex Triple Quad 4500 mass spectrometer system with an Agilent 1260 Infinity II pump and autosampler. Mass spectrometer conditions are described in Table S1. Quantitation of compounds was performed via AB Sciex Multiquant software using the raw analyte:IS peak area ratios. The typical detection range was 0.5 ng/mL to ≥ 5,000 ng/mL utilizing a quadratic equation regression with 1/x2 weighting. […]
Table S1. LC-MS/MS Conditions*
Mobile phase A 0.5% Formic Acid in Water
Mobile phase B 0.5% Formic Acid in Acetonitrile
Gradient Time % Mobile Phase B

cardiac ion channels = assay: Charles River ChanTest Cardiac Channel Panel (patch clamp), whole panel; assay type: cell-based, human; settings: 10 μM
Protocol: page 17: Table S3. Cardiac Ion Channel Panel - Charles River Laboratories for VU6016235 Ion Channel Concentration Mean % Standard Standard n (μM) Inhibition Deviation Error hCav1.2 10 13.9 8.9 5.1 3 hCav3.2 10 6.7 2.7 1.4 4 hHCN2 10 2.6 1.9 1.1 3 hERG 10 10.9 0.9 0.4 4 hKv1.5 10 1.3 1.8 0.9 4 […] 10 4.1 5.6 2.8 4 hKv1.3 10 9 2.9 1.7 3 hNav1.5 (Tonic) 10 5.8 0.6 0.4 3 […] (Phasic) The in vitro effects of VU6016235 were evaluated at room temperature using the QPatch HT® (Sophion Bioscience A/S, Denmark), an automatic parallel patch clamp system. VU6016235 was evaluated at a concentration of 10 μM and tested in at least 3 cells (n ≥ 3). […] Next, rats were injected subcutaneously with vehicle or a dose of 0.75 mg/kg amphetamine and then monitored for an additional 60 min. Changes in locomotor activity were recorded for a total of 120 min. Locomotor data were expressed as the number of photobeam breaks/5 min intervals across the 120-min test session or as the total ambulation, calculated as sum of photobeam beam breaks from the time of amphetamine administration (60 min) until the end of the study (120 min). Time course data were analyzed by two-way ANOVA with main effects of treatment and time; changes in total ambulation were analyzed by one-way ANOVA followed by Dunnett's post hoc test (GraphPad Prism 7 [GraphPad Software, San Diego, CA]). […]

Endothelin ETA = biological target: T1, Endothelin ETA (Homo sapiens, UniProt P25101); assay: Lead Profiling Screen – Eurofins Panlabs; assay type: binding; settings: read-out: % inh at 10 μM
T1 construct: Eurofins Panlabs (contract screen)
T1 sequence (P25101 21-427): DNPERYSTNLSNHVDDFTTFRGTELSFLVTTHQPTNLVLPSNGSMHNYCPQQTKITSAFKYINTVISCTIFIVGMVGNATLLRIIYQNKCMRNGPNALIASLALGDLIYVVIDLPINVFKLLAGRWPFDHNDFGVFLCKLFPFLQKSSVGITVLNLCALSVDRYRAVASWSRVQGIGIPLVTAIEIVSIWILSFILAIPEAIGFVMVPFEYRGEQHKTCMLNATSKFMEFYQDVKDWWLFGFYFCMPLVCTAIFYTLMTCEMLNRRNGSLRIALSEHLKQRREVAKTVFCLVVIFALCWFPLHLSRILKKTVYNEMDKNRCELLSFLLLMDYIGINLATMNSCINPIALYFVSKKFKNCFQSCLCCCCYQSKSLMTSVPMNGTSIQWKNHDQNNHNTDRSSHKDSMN

Cc1nc(C)c2c(n1)sc1c(NCc3ccc(C(C)(C)O)cc3)nccc12 [22g]
CLint scaled at 1 µM ([1]; pH 7.4, rat liver microsomes): 78 mL/min/kg
CLhep, rat ([1]; predicted hepatic clearance from microsomal CLint): 37 mL/min/kg
inhibition, all ion channels (cardiac ion channels): ≤ 14%
inhibition at 10 µM (Endothelin ETA): -2%
